Reference: US20250197387A1, “BCL-XL DEGRADERS AND USES THEREOF” (Kymera Therapeutics, Inc., priority 2021, published 2025)

How the values were obtained:
Assay type in all cases: cell-based
[1] = biological target: T1, BCL-XL (Homo sapiens, UniProt Q07817); assay: Bcl-xL ELISA degradation in MOLT-4 cells, 6 h; conditions: for DC50: read-out: Bcl-xL ELISA in MOLT-4 degradation 6 h: Mean external-Abs DC50
T1 construct: endogenous in cells; host or cells: MOLT-4
Experimental: The letter codes for BCL-XL DC50 include: A (<0.01 μM); B (0.01-0.1 μM); C (>[…]); D (>0.5-1.0 μM); and E (>1.0 μM). The letter codes for Dmax % include A (>75%); B (50 to 75%); C (<50%).

[2] = tested on: MOLT-4 cells; assay: CTG (CellTiter-Glo) cell viability assay, MOLT-4; conditions: Homo sapiens, MOLT-4, 72 h, 3 day incubation, read-out: CTG Cell Viability Assay - MOLT-4 3 day: Average external-IC50
Summary of the method: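 Nine-point 1:3 compound series topping at 10 μM (0.2% DMSO final) applied for 3 days to 10,000 MOLT-4 or Caki-2 cells per well, 37° C., 5% CO2. CellTiter-Glo luminescence read after 10 min at room temperature; three-parameter fit gave IC50.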

[3] = tested on: Caki-2 cells; assay: CTG (CellTiter-Glo) cell viability assay, Caki-2; conditions: Homo sapiens, 72 h, 3 day incubation, read-out: CTG Chempartner - Caki-2 3 day: Average external-IC50
Experimental: Compound-mediated viability effect on MOLT-4 and Caki-2 was quantitatively determined using the CellTiter-Glo® Luminescent Cell Viability Assay kit from Promega (Catalog number G7570) following manufacturer's recommended procedures. Briefly, MOLT-4 and Caki-2 cells were seeded into 384 well plates (Grenier Bio-One, Catalog number 781080) with a density of 10,000 cells per well. Compounds were then added to the assay plate with final top concentration of 10 μM and 1:3 dilution series with total of 9 doses. The final DMSO concentration is normalized to 0.2%. The assay plates were incubated at 37° C., for 3 days under 5% CO2. Then the assay plate was equilibrated at room temperature for 10 minutes. To determine cell viability, 30 uL CellTiter Glo reagent was added to each well and the assay plate was centrifuged at 1000 rpm for 30 second, incubated at room temperature for 10 min, and analyzed by detecting the luminescence using a multimode plate reader (EnVision 2105, PerkinElmer). The data was then analyzed by software Prism 7.0 from GraphPad and the dose response curves are fit using a three-parameter logistic equation to calculate IC50.
The letter codes for MOLT-4 IC50 include: A (<0.1 μM); B (0.1-1.0 μM); C (>1.0-3.0 μM); and D (>3.0 μM). The letter codes for Caki-2 IC50 include: A (<0.1 μM); B (0.1-1.0 μM); C (>1.0-10.0 μM); and D (>10.0 μM).

T1 sequence (Q07817 whole entry): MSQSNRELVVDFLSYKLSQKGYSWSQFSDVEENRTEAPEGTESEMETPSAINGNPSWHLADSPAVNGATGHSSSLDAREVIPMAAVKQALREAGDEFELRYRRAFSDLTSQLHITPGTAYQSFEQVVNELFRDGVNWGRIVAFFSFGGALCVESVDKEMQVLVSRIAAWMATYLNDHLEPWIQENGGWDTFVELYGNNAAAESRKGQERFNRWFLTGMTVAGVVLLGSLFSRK

Row | SMILES | Dmax [1] [%] | DC50 [1] [nM] | IC50 [2] [nM] | IC50 [3] [nM]
1 | Cc1ncsc1-c1ccc(CNC(=O)[C@@H]2C[C@@H](O)CN2C(=O)[C@@H](NC(=O)CCCc2cccc(S(=O)(=O)NC(=O)c3nc(N4CCc5cccc(C(=O)Nc6nc7ccccc7s6)c5C4)ccc3-c3cnn(CC4CCCCC4)c3C)c2)C(C)(C)C)cc1 [I-337] | > 75 | < 10 | < 100 | > 10000
2 | Cc1ncsc1-c1ccc([C@H](C)NC(=O)[C@@H]2C[C@@H](O)CN2C(=O)[C@H](NC(=O)CCCCCS(=O)(=O)NC(=O)c2nc(N3CCc4cccc(C(=O)Nc5nc6ccccc6s5)c4C3)ccc2-c2cnn(CC3CCCCC3)c2C)C(C)(C)CCO)cc1 [I-366] | > 75 | 100 to 500 | 1000 to 3000 | > 10000
3 | C#Cc1ccc(CNC(=O)[C@@H]2C[C@@H](O)CN2C(=O)[C@H](c2cc(N3CCN(c4ccc(S(=O)(=O)NC(=O)c5nc(N6CCc7cccc(C(=O)Nc8nc9ccccc9s8)c7C6)ccc5-c5cnn(CC6CCCCC6)c5C)cc4)CC3)no2)C(C)C)c(OC)c1 [I-408] | 50 to 75 | < 10 | < 100 | > 10000
4 | Cc1ncsc1-c1ccc([C@H](C)NC(=O)[C@@H]2C[C@@H](O)CN2C(=O)[C@@H](c2cc(OC3CCN(CCNC(=O)c4nc(N5CCc6cccc(C(=O)Nc7nc8ccccc8s7)c6C5)ccc4-c4cnn(CC5CCCCC5)c4C)CC3)no2)C(C)C)cc1 [I-291] | < 50 | 500 to 1000 | 1000 to 3000 | 1000 to 10000
5 | C#Cc1ccc([C@H](C)NC(=O)[C@@H]2C[C@@H](O)CN2C(=O)[C@@H](NC(=O)CCCCCS(=O)(=O)NC(=O)c2nc(N(C)c3cc(C)c(Nc4nc5ccccc5s4)nn3)ccc2-c2cnn(CC34CC5CC(CC(C5)C3)C4)c2C)C(C)(C)C)cc1 [I-382] | > 75 | < 10 | < 100 | > 10000
6 | Cc1ncsc1-c1ccc(CNC(=O)[C@@H]2C[C@@H](O)CN2C(=O)[C@@H](NC(=O)C2CCN(c3ccc(S(=O)(=O)NC(=O)c4nc(N5CCc6cccc(C(=O)Nc7nc8ccccc8s7)c6C5)ccc4-c4cnn(CC5CCCCC5)c4C)cc3F)CC2)C(C)(C)C)cc1 [I-329] | > 75 | 10 to 100 | < 100 | 1000 to 10000
7 | C#Cc1ccc([C@H](COC)NC(=O)[C@@H]2C[C@@H](O)CN2C(=O)[C@@H](NC(=O)CCCCCS(=O)(=O)NC(=O)c2nc(N3CCc4cccc(C(=O)Nc5nc6cccnc6s5)c4C3)ccc2-c2cnn(CC3CCCCC3)c2C)C(C)(C)C)cc1 [I-478] | > 75 | < 10 | < 100 | > 10000
8 | Cc1ncsc1-c1ccc([C@H](C)NC(=O)[C@@H]2C[C@@H](O)CN2C(=O)[C@@H](NC(=O)C2CCN(c3ccc(S(=O)(=O)NC(=O)c4nc(N5CCc6cccc(C(=O)Nc7nc8ccccc8s7)c6C5)ccc4-c4ccnc(N(C)C(C)C)c4C)cc3)CC2)C(C)(C)C)cc1 [I-332] | > 75 | 10 to 100 | 100 to 1000 | > 10000
9 | Cc1ncsc1-c1ccc([C@H](C)NC(=O)[C@@H]2C[C@@H](O)CN2C(=O)[C@@H](NC(=O)CCCCCS(=O)(=O)NC(=O)c2nc(N3CCc4cccc(C(=O)Nc5nc6ccccc6s5)c4C3)ccc2-c2cnn(CC3CCCC3)c2C)C(C)(C)C)cc1 [I-442] | > 75 | 10 to 100 | < 100 | > 10000
10 | C#Cc1ccc(CNC(=O)[C@@H]2C[C@@H](O)CN2C(=O)[C@@H](NC(=O)C2CN(c3ccc(S(=O)(=O)NC(=O)c4nc(N(C)c5cc(C)c(Nc6nc7ccccc7s6)nn5)ccc4-c4cnn(CC56CC7CC(CC(C7)C5)C6)c4C)cc3)C2)C(C)(C)C)cc1 [I-440] | > 75 | < 10 | < 100 | > 10000
11 | C#Cc1ccc(CNC(=O)[C@@H]2C[C@@H](O)CN2C(=O)[C@@H](NC(=O)C2CN(c3ccc(S(=O)(=O)NC(=O)c4nc(N5CCc6cccc(C(=O)Nc7nc8ccccc8s7)c6C5)ccc4-c4cnn(CC5CCCCC5)c4C)cc3F)C2)C(C)(C)C)cc1 [I-358] | > 75 | 10 to 100 | < 100 | 1000 to 10000
12 | C#Cc1ccc(CNC(=O)[C@@H]2C[C@@H](O)CN2C(=O)[C@@H](NC(=O)CCCCS(=O)(=O)NC(=O)c2nc(N(C)c3cc(C)c(Nc4nc5cccnc5s4)nn3)ccc2-c2cnn(CC34CC5CC(CC(C5)C3)C4)c2C)C(C)(C)C)cc1 [I-453] | > 75 | 100 to 500 | > 3000 | > 10000
13 | Cc1ncsc1-c1ccc([C@H](C)NC(=O)[C@@H]2C[C@@H](O)CN2C(=O)[C@@H](NC(=O)c2ccc(NC3CCCN(S(=O)(=O)NC(=O)c4nc(N5CCc6cccc(C(=O)Nc7nc8ccccc8s7)c6C5)ccc4-c4cnn(CC5CCCCC5)c4C)C3)cc2)C(C)(C)C)cc1 (some centres unmarked) [I-325] | 50 to 75 | 100 to 500 | < 100 | 1000 to 10000
14 | Cc1ncsc1-c1ccc([C@H](C)NC(=O)[C@@H]2C[C@@H](O)CN2C(=O)[C@@H](NC(=O)[C@H]2CC[C@H](c3nc(C4CCCN(C(=O)c5nc(N6CCc7cccc(C(=O)Nc8nc9ccccc9s8)c7C6)ccc5-c5cnn(CC6CCCCC6)c5C)C4)no3)CC2)C(C)(C)C)cc1 (some centres unmarked) [I-301] | 50 to 75 | > 1000 | 100 to 1000 | 1000 to 10000
15 | C#Cc1ccc(CNC(=O)[C@@H]2C[C@@H](O)CN2C(=O)[C@@H](NC(=O)CCN(C)CCS(=O)(=O)NC(=O)c2nc(N3CCc4cccc(C(=O)Nc5nc6cccnc6s5)c4C3)ccc2-c2cnn(CC3CCCCC3)c2C)C(C)(C)C)cc1 [I-413] | > 75 | 10 to 100 | 100 to 1000 | > 10000
16 | Cc1ncsc1-c1ccc([C@H](C)NC(=O)[C@@H]2C[C@@H](O)CN2C(=O)[C@@H](NC(=O)c2ccc(N3CCC(S(=O)(=O)NC(=O)c4nc(N5CCc6cccc(C(=O)Nc7nc8ccccc8s7)c6C5)ccc4-c4cnn(CC5CCCCC5)c4C)CC3)cc2)C(C)(C)C)cc1 [I-303] | > 75 | 100 to 500 | 100 to 1000 | 1000 to 10000
17 | Cc1ncsc1-c1ccc([C@H](C)NC(=O)[C@@H]2C[C@@H](O)CN2C(=O)[C@@H](NC(=O)CCCCCS(=O)(=O)NC(=O)c2nc(N3CCc4cccc(C(=O)Nc5nc6ccccc6s5)c4C3)ccc2-c2cnn(CC3CCCCC3)c2C)C(C)(C)CCO)cc1 [I-365] | > 75 | 10 to 100 | < 100 | > 10000
18 | C#Cc1ccc([C@H](C)NC(=O)[C@@H]2C[C@@H](O)CN2C(=O)[C@@H](NC(=O)CCCCCS(=O)(=O)NC(=O)c2nc(N3CCc4cccc(C(=O)Nc5nc6cccnc6s5)c4C3)ccc2-c2cnn(CC3CCCCC3)c2C)C(C)(C)C)c(O)c1 [I-479] | > 75 | < 10 | < 100 | > 10000
19 | C#Cc1ccc(CNC(=O)[C@@H]2C[C@@H](O)CN2C(=O)[C@H](c2cc(N3CCN(c4ccc(S(=O)(=O)NC(=O)c5nc(N6CCc7cccc(C(=O)Nc8nc9ccccc9s8)c7C6)ccc5-c5cnn(CC6CCCCC6)c5C)cc4)CC3)no2)C(C)C)cc1 [I-407] | 50 to 75 | 100 to 500 | 100 to 1000 | 1000 to 10000
20 | Cc1ncsc1-c1ccc(CNC(=O)[C@@H]2C[C@@H](O)CN2C(=O)[C@@H](NC(=O)[C@@H]2CCN(c3ccc(S(=O)(=O)NC(=O)c4nc(N5CCc6cccc(C(=O)Nc7nc8ccccc8s7)c6C5)ccc4-c4cnn(CC5CCCCC5)c4C)cc3)C2)C(C)(C)C)cc1 [I-410] | > 75 | 10 to 100 | < 100 | > 10000
